From patent US20110136666A1, “CHEMICAL COMPOUNDS” (SYNGENTA CROP PROTECTION, INC., priority 2008, published 2011)

What was measured:
Assay type in all cases: in vivo
[1] = tested on: Alopecurus myosuroides (ALOMY); experiment: Pre-emergence biological efficacy, glasshouse pot test; conditions: 312 h, after 13 days, 100=total damage, 0=no damage, read-out: Percentage damage caused to weed species ALOMY
Description: (§1) Seeds of Alopecurus myosuroides (ALOMY), Setaria faberi (SETFA), Echinochloa crus-galli (ECHCG), Solanum nigrum (SOLNI), Amaranthus retroflexus (AMARE) and Ipomea hederaceae (IPOHE) were sown in standard soil in pots. After cultivation for one day under controlled conditions in a glasshouse (at 24/16° C., day/night; 14 hours light; 65% humidity), the plants were sprayed with an aqueous spray solution derived from the formulation of the technical active ingredient in acetone/water (50:50) solution containing 0.5% Tween 20 (polyoxyethylene sorbitan monolaurate, CAS RN 9005-64-5) to give a final dose of 250 or 1000 g/ha of test compound.
(§2) The test plants were then grown under controlled conditions in the glasshouse (at 24/16° C., day/night; 14 hours light; 65% humidity) and watered twice daily. After 13 days the test was evaluated (100=total damage to plant; 0=no damage to plant).

[2] = tested on: Amaranthus retroflexus (AMARE); experiment: as above; conditions: 312 h, after 13 days, 100=total damage, 0=no damage, read-out: Percentage damage caused to weed species AMARE
Description: as §1, §2

[3] = tested on: Echinochloa crus-galli (ECHCG); experiment: as above; conditions: 312 h, after 13 days, 100=total damage, 0=no damage, read-out: Percentage damage caused to weed species ECHCG
Description: as §1, §2

[4] = tested on: Ipomea hederaceae (IPOHE); experiment: as above; conditions: Ipomoea hederacea, 312 h, after 13 days, 100=total damage, 0=no damage, read-out: Percentage damage caused to weed species IPOHE
Description: as §1, §2

[5] = tested on: Setaria faberi (SETFA); experiment: as above; conditions: 312 h, after 13 days, 100=total damage, 0=no damage, read-out: Percentage damage caused to weed species SETFA
Description: as §1, §2

[6] = tested on: Solanum nigrum (SOLNI); experiment: as above; conditions: 312 h, after 13 days, 100=total damage, 0=no damage, read-out: Percentage damage caused to weed species SOLNI
Description: as §1, §2

[7] = tested on: Alopecurus myosuroides (ALOMY); experiment: Post-emergence biological efficacy, glasshouse pot test; conditions: 312 h, after 13 days, 100=total damage, 0=no damage, read-out: Percentage damage caused to weed species ALOMY
Description: as §1, with “8 days” for “one day”
(§3) The test plants were then grown on under controlled conditions in a glasshouse (at 24/16° C., day/night; 14 hours light; 65% humidity) and watered twice daily. After 13 days the test was evaluated (100=total damage to plant; 0=no damage to plant).

[8] = tested on: Amaranthus retroflexus (AMARE); experiment: as above; conditions: 312 h, after 13 days, 100=total damage, 0=no damage, read-out: Percentage damage caused to weed species AMARE
Description: as §1, with “8 days” for “one day”
as §3

[9] = tested on: Echinochloa crus-galli (ECHCG); experiment: as above; conditions: 312 h, after 13 days, 100=total damage, 0=no damage, read-out: Percentage damage caused to weed species ECHCG
Description: as §1, with “8 days” for “one day”
as §3

[10] = tested on: Ipomea hederaceae (IPOHE); experiment: as above; conditions: Ipomoea hederacea, 312 h, after 13 days, 100=total damage, 0=no damage, read-out: Percentage damage caused to weed species IPONE
Description: as §1, with “8 days” for “one day”
as §3

[11] = tested on: Setaria faberi (SETFA); experiment: as above; conditions: 312 h, after 13 days, 100=total damage, 0=no damage, read-out: Percentage damage caused to weed species SETFA
Description: as §1, with “8 days” for “one day”
as §3

[12] = tested on: Solanum nigrum (SOLNI); experiment: as above; conditions: 312 h, after 13 days, 100=total damage, 0=no damage, read-out: Percentage damage caused to weed species SOLNI
Description: as §1, with “8 days” for “one day”
as §3

COC(=O)c1nc(-c2ccsc2Cl)nc(N)c1Cl [Compound 2-18, 4-Amino-5-chloro-2-(2-chlorothiophen-3-yl)-6-methoxycarbonyl pyrimidine]
0%: pest or weed control at 250 g/ha [1] | pest or weed control at 250 g/ha [2] | pest or weed control at 250 g/ha [3] | pest or weed control at 250 g/ha [4] | pest or weed control at 250 g/ha [5] | pest or weed control at 250 g/ha [6] | pest or weed control at 250 g/ha [12]
10%: pest or weed control at 250 g/ha [7] | pest or weed control at 250 g/ha [9] | pest or weed control at 250 g/ha [11]
20%: pest or weed control at 250 g/ha [8]
40%: pest or weed control at 250 g/ha [10]

COC(=O)c1nc(-c2ccc(OC)nc2)nc(N)c1Cl [Compound 2-155, 4-Amino-5-chloro-6-methoxycarbonyl-2-(2-methoxypyridin-5-yl)-pyrimidine]
80%: pest or weed control at 1000 g/ha [9] | pest or weed control at 1000 g/ha [11]
20%: pest or weed control at 1000 g/ha [2] | pest or weed control at 1000 g/ha [6]
0%: pest or weed control at 1000 g/ha [1] | pest or weed control at 1000 g/ha [3] | pest or weed control at 1000 g/ha [4] | pest or weed control at 1000 g/ha [5] | pest or weed control at 1000 g/ha [7]
70%: pest or weed control at 1000 g/ha [10] | pest or weed control at 1000 g/ha [12]
100%: pest or weed control at 1000 g/ha [8]

CCOC(=O)c1nc(-c2ccc(C(F)(F)F)cn2)nc(N)c1Cl [Compound 3-150, 4-amino-5-chloro-6-ethoxycarbonyl-2-(5-trifluoromethylpyridin-2-yl)-pyrimidine]
0%: pest or weed control at 1000 g/ha [1] | pest or weed control at 1000 g/ha [2] | pest or weed control at 1000 g/ha [3] | pest or weed control at 1000 g/ha [4] | pest or weed control at 1000 g/ha [5] | pest or weed control at 1000 g/ha [6] | pest or weed control at 1000 g/ha [7] | pest or weed control at 1000 g/ha [8] | pest or weed control at 1000 g/ha [9] | pest or weed control at 1000 g/ha [10] | pest or weed control at 1000 g/ha [11] | pest or weed control at 1000 g/ha [12]

COC(=O)c1nc(-c2ccoc2)nc(N)c1Cl [Compound 2-34, 4-Amino-5-chloro-2-(furan-3-yl)-6-methoxycarbonyl pyrimidine]
0%: pest or weed control at 1000 g/ha [1] | pest or weed control at 1000 g/ha [2] | pest or weed control at 1000 g/ha [3] | pest or weed control at 1000 g/ha [4] | pest or weed control at 1000 g/ha [5] | pest or weed control at 1000 g/ha [6] | pest or weed control at 1000 g/ha [9] | pest or weed control at 1000 g/ha [11]
30%: pest or weed control at 1000 g/ha [8]
50%: pest or weed control at 1000 g/ha [10]
10%: pest or weed control at 1000 g/ha [7] | pest or weed control at 1000 g/ha [12]

COC(=O)c1nc(-c2cc(Cl)sc2Cl)nc(N)c1Cl [Compound 2-19, 4-Amino-5-chloro-2-(2,5-dichlorothiophen-3-yl)-6-methoxycarbonyl pyrimidine]
20%: pest or weed control at 1000 g/ha [2] | pest or weed control at 1000 g/ha [6]
70%: pest or weed control at 1000 g/ha [10] | pest or weed control at 1000 g/ha [12]
10%: pest or weed control at 1000 g/ha [9]
0%: pest or weed control at 1000 g/ha [1] | pest or weed control at 1000 g/ha [3] | pest or weed control at 1000 g/ha [5] | pest or weed control at 1000 g/ha [7]
30%: pest or weed control at 1000 g/ha [4] | pest or weed control at 1000 g/ha [11]
100%: pest or weed control at 1000 g/ha [8]

COC(=O)c1nc(-c2ccc(C#N)s2)nc(N)c1Cl [Compound 2-3, 4-Amino-5-chloro-2-(5-cyanothiophen-2-yl)-6-methoxycarbonyl pyrimidine]
0%: pest or weed control at 1000 g/ha [1] | pest or weed control at 1000 g/ha [2] | pest or weed control at 1000 g/ha [3] | pest or weed control at 1000 g/ha [4] | pest or weed control at 1000 g/ha [5] | pest or weed control at 1000 g/ha [6] | pest or weed control at 1000 g/ha [7] | pest or weed control at 1000 g/ha [8] | pest or weed control at 1000 g/ha [9] | pest or weed control at 1000 g/ha [10] | pest or weed control at 1000 g/ha [11] | pest or weed control at 1000 g/ha [12]

COC(=O)c1nc(-c2c(C)n[nH]c2C)nc(N)c1Cl [Compound 2-72, 4-Amino-5-chloro-2-(3,5-dimethylpyrazol-4-yl)-6-methoxycarbonyl pyrimidine]
0%: pest or weed control at 250 g/ha [1] | pest or weed control at 250 g/ha [2] | pest or weed control at 250 g/ha [3] | pest or weed control at 250 g/ha [4] | pest or weed control at 250 g/ha [5] | pest or weed control at 250 g/ha [6] | pest or weed control at 250 g/ha [7] | pest or weed control at 250 g/ha [8] | pest or weed control at 250 g/ha [9] | pest or weed control at 250 g/ha [10] | pest or weed control at 250 g/ha [11] | pest or weed control at 250 g/ha [12]

COC(=O)c1nc(-c2ccc(Cl)s2)nc(N)c1Cl [Compound 2-2, 4-Amino-5-chloro-2-(5-chlorothiophen-2-yl)-6-methoxycarbonyl pyrimidine]
80%: pest or weed control at 1000 g/ha [2]
20%: pest or weed control at 1000 g/ha [4]
70%: pest or weed control at 1000 g/ha [10]
0%: pest or weed control at 1000 g/ha [1] | pest or weed control at 1000 g/ha [3] | pest or weed control at 1000 g/ha [5] | pest or weed control at 1000 g/ha [6] | pest or weed control at 1000 g/ha [7] | pest or weed control at 1000 g/ha [9] | pest or weed control at 1000 g/ha [11]
100%: pest or weed control at 1000 g/ha [8]
90%: pest or weed control at 1000 g/ha [12]

COC(=O)c1nc(-c2ccsc2)nc(N)c1Cl [Compound 2-16, 4-Amino-5-chloro-6-methoxycarbonyl-2-thiophen-3-ylpyrimidine]
40%: pest or weed control at 250 g/ha [10]
10%: pest or weed control at 250 g/ha [1]
30%: pest or weed control at 250 g/ha [6]
90%: pest or weed control at 250 g/ha [2]
20%: pest or weed control at 250 g/ha [7]
0%: pest or weed control at 250 g/ha [3] | pest or weed control at 250 g/ha [4] | pest or weed control at 250 g/ha [5] | pest or weed control at 250 g/ha [8] | pest or weed control at 250 g/ha [9] | pest or weed control at 250 g/ha [11] | pest or weed control at 250 g/ha [12]

COC(=O)c1nc(-c2cc3cc(C)ccc3s2)nc(N)c1Cl [Compound 2-55, 4-Amino-5-chloro-6-methoxycarbonyl-2-(5-methylbenzothiophen-2-yl)-pyrimidine]
70%: pest or weed control at 250 g/ha [8]
40%: pest or weed control at 250 g/ha [10]
10%: pest or weed control at 250 g/ha [2] | pest or weed control at 250 g/ha [4] | pest or weed control at 250 g/ha [7]
30%: pest or weed control at 250 g/ha [12]
0%: pest or weed control at 250 g/ha [1] | pest or weed control at 250 g/ha [3] | pest or weed control at 250 g/ha [5] | pest or weed control at 250 g/ha [6] | pest or weed control at 250 g/ha [9] | pest or weed control at 250 g/ha [11]
